Data as given in ChEMBL document CHEMBL1143950, “Antifungal and cytotoxic activities of some N-substituted aniline derivatives bearing a hetaryl fragment” (Bioorg Med Chem, 2008).
Values after ≈ are worked out from the molar mass of the structure shown.

Tests used:
Candida albicans = experiment: Antifungal activity against Candida albicans ATCC 10231 by micro-broth dilution method; format: functional
Candida tropicalis = experiment: Antifungal activity against Candida tropicalis C131 by micro-broth dilution method; format: functional
Saccharomyces cerevisiae = experiment: Antifungal activity against Saccharomyces cerevisiae ATCC 9763 by microbroth dilution method; format: functional
Cryptococcus neoformans [1] = experiment: Antifungal activity against Cryptococcus neoformans ATCC 32264 by microbroth dilution method; format: functional
Aspergillus fumigatus = experiment: Antifungal activity against Aspergillus fumigatus ATCC 26934 by micro-broth dilution method; format: functional
Aspergillus flavus = experiment: Antifungal activity against Aspergillus flavus ATCC 9170 by micro-broth dilution method; format: functional
Trichophyton rubrum = experiment: Antifungal activity against Trichophyton rubrum C113 by microbroth dilution method; format: functional
Aspergillus niger = experiment: Antifungal activity against Aspergillus niger ATCC 9029 by micro-broth dilution method; format: functional
Nannizzia gypsea = experiment: Antifungal activity against Microsporum gypseum C115 by microbroth dilution method; format: functional
[2] = system: Trichophyton mentagrophytes; experiment: Antifungal activity against Trichophyton mentagrophytes ATCC 9972 by micro-broth dilution method; format: functional
Cryptococcus neoformans [3] = experiment: Antifungal activity against Cryptococcus neoformans IM 983040 by micro-broth dilution method; format: functional
Cryptococcus neoformans [4] = experiment: Antifungal activity against Cryptococcus neoformans IM 972724 by micro-broth dilution method; format: functional
Cryptococcus neoformans [5] = experiment: Antifungal activity against Cryptococcus neoformans IM 042074 by micro-broth dilution method; format: functional
Cryptococcus neoformans [6] = experiment: Antifungal activity against Cryptococcus neoformans IM 983036 by micro-broth dilution method; format: functional
Cryptococcus neoformans [7] = experiment: Antifungal activity against Cryptococcus neoformans IM 00319 by microbroth dilution method; format: functional
Cryptococcus neoformans [8] = experiment: Antifungal activity against Cryptococcus neoformans IM 972751 by microbroth dilution method; format: functional
Cryptococcus neoformans [9] = experiment: Antifungal activity against Cryptococcus neoformans IM 031631 by micro-broth dilution method; format: functional
Cryptococcus neoformans [10] = experiment: Antifungal activity against Cryptococcus neoformans IM 031706 by micro-broth dilution method; format: functional
Cryptococcus neoformans [11] = experiment: Antifungal activity against Cryptococcus neoformans IM 961951 by micro-broth dilution method; format: functional
MCF7 = experiment: Cytotoxicity against human MCF7 cells by SRB assay; format: functional, cell-based
NCI-H460 = experiment: Cytotoxicity against human H460 cells by SRB assay; format: functional, cell-based
SF-268 = experiment: Cytotoxicity against human SF268 cells by SRB assay; format: functional, cell-based

Row | SMILES | MIC (Cryptococcus neoformans [3]) | MIC (Cryptococcus neoformans [4]) | MIC (Cryptococcus neoformans [5]) | MIC (Cryptococcus neoformans [6]) | MIC (Cryptococcus neoformans [7]) | MIC (Cryptococcus neoformans [8]) | MIC (Cryptococcus neoformans [9]) | MIC (Cryptococcus neoformans [10]) | MIC (Cryptococcus neoformans [11]) | IC50 (NCI-H460) | IC50 (SF-268) | further results
1 | Ic1ccc(NCc2ccncc2)cc1 | 100 µg/mL (≈ 322 µM) | 25 µg/mL (≈ 80.6 µM) | 50 µg/mL (≈ 161 µM) | 50 µg/mL (≈ 161 µM) | 50 µg/mL (≈ 161 µM) | 50 µg/mL (≈ 161 µM) | 50 µg/mL (≈ 161 µM) | 100 µg/mL (≈ 322 µM) | 100 µg/mL (≈ 322 µM) | > 10 µg/mL | > 10 µg/mL | MIC (Candida albicans): 50 µg/mL (≈ 161 µM); MIC (Candida tropicalis): 50 µg/mL (≈ 161 µM); MIC (Saccharomyces cerevisiae): 50 µg/mL (≈ 161 µM); MIC (Cryptococcus neoformans [1]): 25 µg/mL (≈ 80.6 µM); MIC (Aspergillus fumigatus): 50 µg/mL (≈ 161 µM); MIC (Aspergillus flavus): 100 µg/mL (≈ 322 µM); MIC (Trichophyton rubrum): 6.25 µg/mL (≈ 20.2 µM); MIC (Aspergillus niger): 50 µg/mL (≈ 161 µM); MIC (Nannizzia gypsea): 12.5 µg/mL (≈ 40.3 µM); MIC [2]: 12.5 µg/mL (≈ 40.3 µM); IC50 (MCF7): > 10 µg/mL
2 | C[C@@H](c1ncncc1F)[C@](O)(Cn1cncn1)c1ccc(F)cc1F [VORICONAZOLE] | < 0.015 µg/mL | < 0.015 µg/mL | < 0.015 µg/mL | < 0.015 µg/mL | 0.03 µg/mL (≈ 0.0859 µM) | 0.25 µg/mL (≈ 0.716 µM) | 0.5 µg/mL (≈ 1.43 µM) | 0.015 µg/mL (≈ 0.0429 µM) | 0.03 µg/mL (≈ 0.0859 µM) | – | – | –
3 | COc1cccc2c1C(=O)c1c(O)c3c(c(O)c1C2=O)C[C@@](O)(C(=O)CO)C[C@@H]3O[C@H]1C[C@H](N)[C@H](O)[C@H](C)O1 [DOXORUBICIN] | – | – | – | – | – | – | – | – | – | 0.18 µg/mL (≈ 0.331 µM) | 0.14 µg/mL (≈ 0.258 µM) | –
4 | OC(Cn1cncn1)(Cn1cncn1)c1ccc(F)cc1F [FLUCONAZOLE] | 7.8 µg/mL (≈ 25.5 µM) | 3.9 µg/mL (≈ 12.7 µM) | 3.9 µg/mL (≈ 12.7 µM) | 15.6 µg/mL (≈ 50.9 µM) | 1.9 µg/mL (≈ 6.2 µM) | 31.2 µg/mL (≈ 102 µM) | 31.2 µg/mL (≈ 102 µM) | 3.9 µg/mL (≈ 12.7 µM) | 7.8 µg/mL (≈ 25.5 µM) | – | – | –
5 | Nc1nc(=O)[nH]cc1F [FLUCYTOSINE] | 7.8 µg/mL (≈ 60.4 µM) | 3.9 µg/mL (≈ 30.2 µM) | 3.9 µg/mL (≈ 30.2 µM) | – | 15.6 µg/mL (≈ 121 µM) | 7.8 µg/mL (≈ 60.4 µM) | 7.8 µg/mL (≈ 60.4 µM) | 3.9 µg/mL (≈ 30.2 µM) | 7.8 µg/mL (≈ 60.4 µM) | – | – | –
